Literature values in PubChem BioAssay AID1259409 (Chemical Carcinogenesis Research Information System (CCRIS), 2018).

System: rodent chemically induced tumor inhibition, incidence and multiplicity
Test: CCRIS tumor inhibitor studies
Details: Route [Inhibitor]: ORAL, Promoter: NONE USED

CC1=C(/C=C/C(C)=C/C=C/C(C)=C/C(=O)NCCO)C(C)(C)CCC1
tumour outcome (control, treated, inhibition, significance) (Carcinogen: N-(4-(5-NITRO-2-FURYL)-2-THIAZOLYL)FORMAMIDE, 24554-26-5, Dose [Inhibitor]: 686 MG/KG/D IN DIET FOR 39 WK STARTING 1 WK POST CARCINOGEN TREATMENT (STUDY DURATION: 50 WK), Species: RAT, Strain/Sex: F344/FEMALE, Target Tissue: Type of Lesion: URINARY BLADDER: CARCINOMA, Dose [Carcinogen]: 2 G/KG/D IN DIET FOR 10 WK): 105/200 (53%), 49/100 (49%), 8%, p<0.5657 | tumour outcome (control, treated, inhibition, significance) (Carcinogen: N-(4-(5-NITRO-2-FURYL)-2-THIAZOLYL)FORMAMIDE, 24554-26-5, Dose [Inhibitor]: 686 MG/KG/D IN DIET FOR 39 WK STARTING 1 WK POST CARCINOGEN TREATMENT (STUDY DURATION: 50 WK), Species: RAT, Strain/Sex: F344/FEMALE, Target Tissue: Type of Lesion: URINARY BLADDER: PAPILLOMA, Dose [Carcinogen]: 2 G/KG/D IN DIET FOR 10 WK): 15/200 (7.5%), 17/100 (17%), -127%, p<0.012 | tumour outcome (control, treated, inhibition, significance) (Carcinogen: N-BUTYL-N-(4-HYDROXYBUTYL)NITROSAMINE, 3817-11-6, Dose [Inhibitor]: 0.5 MMOL/KG DIET DAILY FOR 16 WK STARTING 7 D AFTER FINAL CARCINOGEN DOSE (STUDY DURATION: 6 MO), Species: MOUSE, Strain/Sex: B6D2F1/MALE, Target Tissue: Type of Lesion: URINARY BLADDER: CARCINOMA, Dose [Carcinogen]: 5 OR 10 MG 2/WK FOR 9 WK): 36/97 (37%), 22/75 (29%), 22%, not significant | tumour outcome (control, treated, inhibition, significance) (Carcinogen: N-BUTYL-N-(4-HYDROXYBUTYL)NITROSAMINE, 3817-11-6, Dose [Inhibitor]: 1 MMOL/KG DIET DAILY FOR 16 WK STARTING 7 D AFTER FINAL CARCINOGEN DOSE (STUDY DURATION: 6 MO), Species: MOUSE, Strain/Sex: B6D2F1/MALE, Target Tissue: Type of Lesion: URINARY BLADDER: CARCINOMA, Dose [Carcinogen]: 5 OR 10 MG 2/WK FOR 9 WK): 36/97 (37%), 17/77 (22%), 41%, p<0.025 | tumour outcome (control, treated, inhibition, significance) (Carcinogen: N-BUTYL-N-(4-HYDROXYBUTYL)NITROSAMINE, 3817-11-6, Dose [Inhibitor]: 1 MMOL/KG DIET DAILY FOR 108 D STARTING ONE WK AFTER THE FINAL CARCINOGEN DOSE (STUDY DURATION: 171 D), Species: MOUSE, Strain/Sex: BDF1/MALE, Target Tissue: Type of Lesion: URINARY BLADDER: TRANSITIONAL CELL CARCINOMA, Dose [Carcinogen]: 5 MG 2/WK FOR 9 WK): 31/55 (56%), 19/55 (35%), 38%, p<0.05 | tumour outcome (control, treated, inhibition, significance) (Carcinogen: N-BUTYL-N-(4-HYDROXYBUTYL)NITROSAMINE, 3817-11-6, Dose [Inhibitor]: 1 MMOL/KG DIET DAILY FOR 159 D STARTING ONE WK AFTER THE FINAL CARCINOGEN DOSE (STUDY DURATION: 216 D), Species: MOUSE, Strain/Sex: BDF1/MALE, Target Tissue: Type of Lesion: URINARY BLADDER: TRANSITIONAL CELL CARCINOMA, Dose [Carcinogen]: 7.5 MG 1/WK FOR 8 WK): 29/98 (30%), 14/95 (15%), 50%, p<0.05 | tumour outcome (control, treated, inhibition, significance) (Carcinogen: N-BUTYL-N-(4-HYDROXYBUTYL)NITROSAMINE, 3817-11-6, Dose [Inhibitor]: 1.0 MMOL/KG/D IN DIET FOR 108 D STARTING 1 WK POST CARCINOGEN TREATMENT (STUDY DURATION: 171 D), Species: MOUSE, Strain/Sex: DBF1/MALE, Target Tissue: Type of Lesion: URINARY BLADDER: TRANSITIONAL CELL CARCINOMA, Dose [Carcinogen]: 5 MG 2/WK FOR 9 WK): 31/55 (56%), 19/55 (35%), 38%, p<0.05 | tumour outcome (control, treated, inhibition, significance) (Carcinogen: N-BUTYL-N-(4-HYDROXYBUTYL)NITROSAMINE, 3817-11-6, Dose [Inhibitor]: 1.0 MMOL/KG/D IN DIET FOR 159 D STARTING 1 WK POST CARCINOGEN TREATMENT (STUDY DURATION: 216 D), Species: MOUSE, Strain/Sex: DBF1/MALE, Target Tissue: Type of Lesion: URINARY BLADDER: TRANSITIONAL CELL CARCINOMA, Dose [Carcinogen]: 7.5 MG 1/WK FOR 8 WK): 29/98 (30%), 14/95 (15%), 50%, p<0.05 | tumour outcome (control, treated, inhibition, significance) (Carcinogen: N-BUTYL-N-(4-HYDROXYBUTYL)NITROSAMINE, 3817-11-6, Dose [Inhibitor]: 2 MMOL/KG DIET DAILY FOR 17 WK STARTING 7 D AFTER FINAL CARCINOGEN DOSE (STUDY DURATION: 6 MO), Species: RAT, Strain/Sex: F344/MALE, Target Tissue: Type of Lesion: URINARY BLADDER: TRANSITIONAL CELL CARCINOMA, Dose [Carcinogen]: 200 MG 2/WK FOR 8 WK): 55/60 (92%), 19/30 (63%), 32%, p<0.01 | tumour outcome (control, treated, inhibition, significance) (Carcinogen: N-BUTYL-N-(4-HYDROXYBUTYL)NITROSAMINE, 3817-11-6, Dose [Inhibitor]: 2 MMOL/KG DIET DAILY FOR 19 WK STARTING 7 D AFTER FINAL CARCINOGEN DOSE (STUDY DURATION: 6 MO), Species: RAT, Strain/Sex: F344/FEMALE, Target Tissue: Type of Lesion: URINARY BLADDER: TRANSITIONAL CELL CARCINOMA, Dose [Carcinogen]: 150 MG 2/WK FOR 6 WK): 28/80 (35%), 5/40 (12%), 66%, p<0.01 | tumour outcome (control, treated, inhibition, significance) (Carcinogen: N-METHYL-N-NITROSOUREA, 684-93-5, Dose [Inhibitor]: 2 MMOL/KG DIET DAILY STARTING 12 D AFTER CARCINOGEN TREATMENT THROUGH ABOUT 8 MO AFTER CARCINOGEN DOSE (STUDY DURATION:, Species: RAT, Strain/Sex: F344/MALE, Target Tissue: Type of Lesion: COLON: ADENOCARCINOMA, Dose [Carcinogen]: 2.5 MG 1/WK FOR 2 WK): 5/39 (13%), 5/30 (17%), -31%, not significant
